The record followed here is paper PMC4947906, “Two fatty acyl reductases involved in moth pheromone biosynthesis” (Scientific Reports, 2016).

Structures are written as SMILES.

One assay has as its target T1, SexpgFAR I (Spodoptera exigua, UniProt A0A0F6NS86).
T1 construct: gene pgFARI; pYES2.1/V5-His TOPO in S. cerevisiae INVSc1
T1 sequence (A0A0F6NS86 1-459): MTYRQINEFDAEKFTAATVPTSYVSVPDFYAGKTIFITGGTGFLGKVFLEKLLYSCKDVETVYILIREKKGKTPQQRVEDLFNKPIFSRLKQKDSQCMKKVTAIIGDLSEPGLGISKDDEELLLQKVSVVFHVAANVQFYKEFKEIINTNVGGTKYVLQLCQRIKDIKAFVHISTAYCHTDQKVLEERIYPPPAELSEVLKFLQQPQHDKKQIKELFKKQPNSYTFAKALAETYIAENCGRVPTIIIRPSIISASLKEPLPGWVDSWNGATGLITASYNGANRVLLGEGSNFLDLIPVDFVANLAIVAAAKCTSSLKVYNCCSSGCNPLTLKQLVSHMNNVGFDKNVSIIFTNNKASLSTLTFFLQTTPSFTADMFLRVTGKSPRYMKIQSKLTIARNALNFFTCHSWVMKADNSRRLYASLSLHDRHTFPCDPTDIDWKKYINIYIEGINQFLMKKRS
Kind of assay: yeast expression, fatty alcohol by GC-MS. It counts as cell-based. The settings on record: fed as methyl ester 0.5 mM, 48 h, 30 °C, the acyl-CoA itself was not added.

The next assay has as its target T2, SexpgFAR II (Spodoptera exigua, UniProt A0A0P0IV71).
T2 construct: gene pgFARII; pYES2.1/V5-His TOPO in S. cerevisiae INVSc1
T2 sequence (A0A0P0IV71 1-454): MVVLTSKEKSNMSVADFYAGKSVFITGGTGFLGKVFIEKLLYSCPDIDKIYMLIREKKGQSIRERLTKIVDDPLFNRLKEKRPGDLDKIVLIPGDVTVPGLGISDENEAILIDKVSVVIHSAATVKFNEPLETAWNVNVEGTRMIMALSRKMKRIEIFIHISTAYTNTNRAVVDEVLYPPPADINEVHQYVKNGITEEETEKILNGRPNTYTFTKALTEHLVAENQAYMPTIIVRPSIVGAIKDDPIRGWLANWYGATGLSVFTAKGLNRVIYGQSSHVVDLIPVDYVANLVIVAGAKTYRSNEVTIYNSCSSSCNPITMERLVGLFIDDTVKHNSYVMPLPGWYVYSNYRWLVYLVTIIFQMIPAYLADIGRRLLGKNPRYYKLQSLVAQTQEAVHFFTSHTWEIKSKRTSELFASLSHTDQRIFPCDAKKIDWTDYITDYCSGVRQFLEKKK
Kind of assay: yeast expression, fatty alcohol by GC-MS. It counts as cell-based. The settings on record: fed as methyl ester 0.5 mM, 48 h, 30 °C; the acyl-CoA itself was not added.

Take `CCCCCCCCCCCCCCCC(=O)SCCNC(=O)CCNC(=O)[C@H](O)C(C)(C)COP(=O)(O)OP(=O)(O)OC[C@H]1O[C@@H](n2cnc3c(N)ncnc32)[C@H](O)[C@@H]1OP(=O)(O)O` [C16:Acyl]: the “yeast expression, fatty alcohol by GC-MS” value on SexpgFAR I (also endogenous C16 acyl of yeast) is “SexpgFAR I-transformed yeast cells produced a significantly higher quantity of C16 fatty alcohol”. Take `CCCC/C=C\CCCCCCCC(=O)OC` [Z9-14:acyl]: the “yeast expression, fatty alcohol by GC-MS” value on SexpgFAR II is “SexpgFAR II exhibits specificity for Z9-14:acid and Z9E12-14:acid precursors”. On the same count and under the same terms, the same measure for `C/C=C/C/C=C\CCCCCCCC(=O)OC` [Z9E12-14:acyl]: “SexpgFAR II exhibits specificity for Z9-14:acid and Z9E12-14:acid precursors”.

`CCCC/C=C\CCCCCCCCCC(=O)OC` [Z11-16:acyl]: the “yeast expression, fatty alcohol by GC-MS” value at SexpgFAR I was “SexpgFAR I produced significantly more Z11-16:OH than SexpgFAR II”.
